Source: PubChem BioAssay AID2060902 (Molecular Pharmacology Branch, DTP, NCI, 2025)

Tested on: 485368-065-R3-J5-PDC spheroids with HUVEC/MSC, viability
Assay: Anticancer human tumor 485368-065-R3-J5-PDC patient-derived pancreatic carcinoma cell line growth inhibition [RAS]
Settings: for IC50: curve of first compound; for viability, T/C: stronger effect = lower value
From the text: RAS pathway inhibitors in Combinations in Complex Spheroids
A high-throughput screen of multi-cell type tumor spheroids was designed to identify active combinations of RAS pathway inhibitors and targeted small molecules. Complex spheroids include a stromal component modeled by human endothelial cells (HUVEC) and fibroblasts modeled by human mesenchymal stem cells (MSCs). The concentration ranges selected for each drug and investigational agent were based upon clinically achievable concentrations if the clinical Cmax of the agent was known.
Compounds. The drugs and investigational agents: abemaciclib (NSC768073), cobimetinib (NSC768068), divarasib (GDC6063, NSC841802), docetaxel (NSC628503), GDC-1971 (RLY-1971, NSC841576), gemcitabine (NSC613327), inavolisib (NSC800729), ipatasertib (NSC767898), KB-0742 (NSC834161), MRTX-1133 (NSC836407), osimertinib (NSC779217), RMC-4630 (NSC839698), RMC-6236 (NSC851965), RMC-6291 (NSC852671), Ro-3306 (NSC812927), sapanisertib (NSC764658), SN-38 (NSC673596), staurosporine (NSC755774), SY5609 (NSC837396), and tovorafenib (DAY101, NSC766906), were obtained from the National Cancer Institute (NCI) Developmental Therapeutics Program Chemical Repository. The FDA-approved anticancer drug set is available from the NCI Developmental Therapeutics Program. […] The stock solutions were prepared in dimethyl sulfoxide (DMSO, Sigma-Aldrich, St. Louis, MO, cat. D2650) at 800-fold the tested concentration and stored at -70 degrees C prior to their use. All drugs and investigational agents were tested over a range starting from a high concentration at or near the clinical Cmax and decreasing in half-log increments. If the clinical Cmax for an agent had not been determined, the highest concentration tested was 10 microM.
Cell Culture. All cells were maintained in an incubator at 37 degrees C and 5% CO2 with 95% humidity. The PDC lines were cultured according to standard operating procedures established by the NCI PDMR. All PDCs were thawed and cultured in Matrigel-coated flasks prepared with a working solution of 1X Ham's F-12 nutrient mix, without supplementation (Invitrogen, Waltham, MA, cat. 11765054), 100 U/mL penicillin-streptomycin (Invitrogen, cat. 15140122), and 2.5% Matrigel (Corning Inc., Corning, NY, cat. 354248) for the first three passages. The 362531-283-R-J2-PDC and 782815-120-R-J1-PDC lines were cultured in 6C/Colon 1B media, which includes advanced DMEM/F-12 (Thermo Fisher Scientific, cat. 12634028), 10 mM HEPES (Thermo Fisher Scientific, cat. 15630080), 1X GlutaMAX supplement (Thermo Fisher Scientific, cat. 35050061), 0.1 mg/mL primocin (InvivoGen, San Diego, CA, cat. ant-pm-2), 10% defined fetal bovine serum, heat inactivated (HyClone Laboratories Inc., Logan, UT, cat. SH30070.03HI), 50% L-WRN conditioned media (ATCC, cat. CRL-3276), 1.25 mM N-Acetyl-L-cysteine (Sigma-Aldrich, cat. A9165), 10 mM nicotinamide (Sigma-Aldrich, cat. N0636), 1X B-27 supplement (Thermo Fisher Scientific, cat. 17504044), 1X N-2 supplement (Thermo Fisher Scientific, cat. 17502048), 50 ng/mL human EGF (Thermo Fisher Scientific, cat. PHG0311), and 10 microM Y-27632 dihydrochloride (Tocris Bioscience, cat. 1254). The K12877-001-R-J1-PDC line was cultured in 6I media, which includes all 6C/Colon 1B media plus 10 ng/mL human FGF-10 (PeproTech, cat. 100-26), 1 ng/mL human FGF-2 (PeproTech, cat. 100-18B), 1 µM prostaglandin E2 (Tocris Bioscience, cat. 2296), […] hydrocortisone (Sigma-Aldrich, cat. H4001), and […] bovine insulin (Sigma-Aldrich, cat. I6634). The K86415-001-R-J1-PDC line was cultured in 6D media, which includes all 6C/Colon 1B media components minus the L-WRN conditioned media. The 485176-168-R4-J1-PDC was cultured in PANC media, which includes all 6C/Colon 1B media plus 100 ng/mL human FGF-10 (PeproTech, cat. 100-26), 500 nM SB-431542 (Selleckchem, cat. S1067), and 10 nM gastrin (Tocris Bioscience, cat. 3006). […]

[1] = second compound 0.0316 µM, first compound 0.0316 µM
[2] = second compound 0.0316 µM, first compound 0.1 µM
[3] = second compound 0.0316 µM, first compound 0.316 µM
[4] = second compound 0.0316 µM, first compound 1 µM
[5] = second compound 0.0316 µM, first compound 3.16 µM
[6] = second compound 0.0316 µM, first compound 10 µM
[7] = second compound 0.1 µM, first compound 0.0316 µM
[8] = second compound 0.1 µM, first compound 0.1 µM
[9] = second compound 0.1 µM, first compound 0.316 µM
[10] = second compound 0.1 µM, first compound 1 µM
[11] = second compound 0.1 µM, first compound 3.16 µM
[12] = second compound 0.1 µM, first compound 10 µM
[13] = second compound 0.316 µM, first compound 0.0316 µM
[14] = second compound 0.316 µM, first compound 0.1 µM
[15] = second compound 0.316 µM, first compound 0.316 µM
[16] = second compound 0.316 µM, first compound 1 µM
[17] = second compound 0.316 µM, first compound 3.16 µM
[18] = second compound 0.316 µM, first compound 10 µM
[19] = second compound 1 µM, first compound 0.0316 µM
[20] = second compound 1 µM, first compound 0.1 µM
[21] = second compound 1 µM, first compound 0.316 µM
[22] = second compound 1 µM, first compound 1 µM
[23] = second compound 1 µM, first compound 3.16 µM
[24] = second compound 1 µM, first compound 10 µM
[25] = second compound 3.16 µM, first compound 0.0316 µM
[26] = second compound 3.16 µM, first compound 0.1 µM
[27] = second compound 3.16 µM, first compound 0.316 µM
[28] = second compound 3.16 µM, first compound 1 µM
[29] = second compound 3.16 µM, first compound 3.16 µM
[30] = second compound 3.16 µM, first compound 10 µM
[31] = second compound 10 µM, first compound 0.0316 µM
[32] = second compound 10 µM, first compound 0.1 µM
[33] = second compound 10 µM, first compound 0.316 µM
[34] = second compound 10 µM, first compound 1 µM
[35] = second compound 10 µM, first compound 3.16 µM
[36] = second compound 10 µM, first compound 10 µM
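Note: spheroids exposed to agents for seven days before readout.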

CC1(O)CCCC1n1c(=O)c(C(F)F)cc2cnc(NC3CCN(S(C)(=O)=O)CC3)nc21 (stereo unspecified) + C#Cc1c(F)ccc2cc(O)cc(-c3ncc4c(N5CC6CCC(C5)N6)nc(OCC56CCCN5CC(F)C6)nc4c3F)c12
IC50 (second compound 0.0316 µM): 562 nM | IC50 (second compound 0.1 µM): 314 nM | IC50 (second compound 0.316 µM): 504 nM | IC50 (second compound 1 µM): 344 nM | IC50 (second compound 3.16 µM): 131 nM | IC50 (second compound 10 µM): < 31.6 nM | viability, T/C [1]: 94.1% | viability, T/C [2]: 62.8% | viability, T/C [3]: 53.2% | viability, T/C [4]: 46.5% | viability, T/C [5]: 39.4% | viability, T/C [6]: 11.2% | viability, T/C [7]: 103% | viability, T/C [8]: 66.4% | viability, T/C [9]: 44.9% | viability, T/C [10]: 40.8% | viability, T/C [11]: 39.9% | viability, T/C [12]: 10.9% | viability, T/C [13]: 84.6% | viability, T/C [14]: 71.1% | viability, T/C [15]: 46% | viability, T/C [16]: 39% | viability, T/C [17]: 47.1% | viability, T/C [18]: 11.9% | viability, T/C [19]: 90% | viability, T/C [20]: 63.4% | viability, T/C [21]: 41% | viability, T/C [22]: 44.2% | viability, T/C [23]: 40.4% | viability, T/C [24]: 13.3% | viability, T/C [25]: 65.8% | viability, T/C [26]: 46.8% | viability, T/C [27]: 38.8% | viability, T/C [28]: 34.4% | viability, T/C [29]: 35.8% | viability, T/C [30]: 9.18% | viability, T/C [31]: 36.9% | viability, T/C [32]: 32.6% | viability, T/C [33]: 28.6% | viability, T/C [34]: 30.9% | viability, T/C [35]: 31.9% | viability, T/C [36]: 6.8%

CCC(CC)c1cc(NC2CCC(N)C2)n2nccc2n1 (stereo unspecified) + C#Cc1c(F)ccc2cc(O)cc(-c3ncc4c(N5CC6CCC(C5)N6)nc(OCC56CCCN5CC(F)C6)nc4c3F)c12
IC50 (second compound 0.0316 µM): 2030 nM | IC50 (second compound 0.1 µM): 1940 nM | IC50 (second compound 0.316 µM): 2010 nM | IC50 (second compound 1 µM): 1980 nM | IC50 (second compound 3.16 µM): 1830 nM | IC50 (second compound 10 µM): 1250 nM | viability, T/C [1]: 108% | viability, T/C [2]: 116% | viability, T/C [3]: 110% | viability, T/C [4]: 147% | viability, T/C [5]: 4.74% | viability, T/C [6]: 7.01% | viability, T/C [7]: 107% | viability, T/C [8]: 95.8% | viability, T/C [9]: 109% | viability, T/C [10]: 129% | viability, T/C [11]: 4.21% | viability, T/C [12]: 7.06% | viability, T/C [13]: 99.4% | viability, T/C [14]: 105% | viability, T/C [15]: 114% | viability, T/C [16]: 152% | viability, T/C [17]: 5.79% | viability, T/C [18]: 7.25% | viability, T/C [19]: 91.1% | viability, T/C [20]: 109% | viability, T/C [21]: 121% | viability, T/C [22]: 138% | viability, T/C [23]: 4.74% | viability, T/C [24]: 6.22% | viability, T/C [25]: 86.7% | viability, T/C [26]: 83.8% | viability, T/C [27]: 96.9% | viability, T/C [28]: 128% | viability, T/C [29]: 4.66% | viability, T/C [30]: 6.53% | viability, T/C [31]: 47.2% | viability, T/C [32]: 42.1% | viability, T/C [33]: 61.7% | viability, T/C [34]: 93.3% | viability, T/C [35]: 3.14% | viability, T/C [36]: 6.12%

CCN1CCN(Cc2ccc(Nc3ncc(F)c(-c4cc(F)c5nc(C)n(C(C)C)c5c4)n3)nc2)CC1 + C#Cc1c(F)ccc2cc(O)cc(-c3ncc4c(N5CC6CCC(C5)N6)nc(OCC56CCCN5CC(F)C6)nc4c3F)c12
IC50 (second compound 0.0316 µM): 457 nM | IC50 (second compound 0.1 µM): 313 nM | IC50 (second compound 0.316 µM): 435 nM | IC50 (second compound 1 µM): 179 nM | IC50 (second compound 3.16 µM): 47.1 nM | IC50 (second compound 10 µM): < 3.16 nM | viability, T/C (second compound 0.0316 µM, first compound 0.00316 µM): 101% | viability, T/C (second compound 0.0316 µM, first compound 0.01 µM): 87% | viability, T/C [1]: 82.8% | viability, T/C [2]: 72.5% | viability, T/C [3]: 50.9% | viability, T/C [4]: 41.4% | viability, T/C (second compound 0.1 µM, first compound 0.00316 µM): 98.2% | viability, T/C (second compound 0.1 µM, first compound 0.01 µM): 96.7% | viability, T/C [7]: 76.1% | viability, T/C [8]: 65.9% | viability, T/C [9]: 50.1% | viability, T/C [10]: 39.8% | viability, T/C (second compound 0.316 µM, first compound 0.00316 µM): 94.4% | viability, T/C (second compound 0.316 µM, first compound 0.01 µM): 85.9% | viability, T/C [13]: 76.2% | viability, T/C [14]: 72.1% | viability, T/C [15]: 50.4% | viability, T/C [16]: 40.6% | viability, T/C (second compound 1 µM, first compound 0.00316 µM): 78.5% | viability, T/C (second compound 1 µM, first compound 0.01 µM): 83.8% | viability, T/C [19]: 75.1% | viability, T/C [20]: 59.4% | viability, T/C [21]: 40.1% | viability, T/C [22]: 40% | viability, T/C (second compound 3.16 µM, first compound 0.00316 µM): 69.4% | viability, T/C (second compound 3.16 µM, first compound 0.01 µM): 63.9% | viability, T/C [25]: 49.7% | viability, T/C [26]: 47.5% | viability, T/C [27]: 36.5% | viability, T/C [28]: 33.8% | viability, T/C (second compound 10 µM, first compound 0.00316 µM): 48.8% | viability, T/C (second compound 10 µM, first compound 0.01 µM): 37.2% | viability, T/C [31]: 31.4% | viability, T/C [32]: 30.3% | viability, T/C [33]: 29.9% | viability, T/C [34]: 28.3%
